Reference: patent US20180148418A1, “AMIDO-SUBSTITUTED CYCLOHEXANE DERIVATIVES” (Bayer Pharma Aktiengesellschaft, priority 2015, published 2018)

molecular target: T1, TNKS1 (Homo sapiens, UniProt O95271); experiment: TNKS1 Assay B (auto-parsylation, [3H]-NAD+ SPA); format: biochemical; details: 6 nM TNKS1, auto-parsylation, over night at room temperature
T1 construct: purchased BPS Bioscience, San Diego, USA 80579 (TNKS1 Histone Ribosylation Assay Kit)
T1 sequence (O95271 1-1327): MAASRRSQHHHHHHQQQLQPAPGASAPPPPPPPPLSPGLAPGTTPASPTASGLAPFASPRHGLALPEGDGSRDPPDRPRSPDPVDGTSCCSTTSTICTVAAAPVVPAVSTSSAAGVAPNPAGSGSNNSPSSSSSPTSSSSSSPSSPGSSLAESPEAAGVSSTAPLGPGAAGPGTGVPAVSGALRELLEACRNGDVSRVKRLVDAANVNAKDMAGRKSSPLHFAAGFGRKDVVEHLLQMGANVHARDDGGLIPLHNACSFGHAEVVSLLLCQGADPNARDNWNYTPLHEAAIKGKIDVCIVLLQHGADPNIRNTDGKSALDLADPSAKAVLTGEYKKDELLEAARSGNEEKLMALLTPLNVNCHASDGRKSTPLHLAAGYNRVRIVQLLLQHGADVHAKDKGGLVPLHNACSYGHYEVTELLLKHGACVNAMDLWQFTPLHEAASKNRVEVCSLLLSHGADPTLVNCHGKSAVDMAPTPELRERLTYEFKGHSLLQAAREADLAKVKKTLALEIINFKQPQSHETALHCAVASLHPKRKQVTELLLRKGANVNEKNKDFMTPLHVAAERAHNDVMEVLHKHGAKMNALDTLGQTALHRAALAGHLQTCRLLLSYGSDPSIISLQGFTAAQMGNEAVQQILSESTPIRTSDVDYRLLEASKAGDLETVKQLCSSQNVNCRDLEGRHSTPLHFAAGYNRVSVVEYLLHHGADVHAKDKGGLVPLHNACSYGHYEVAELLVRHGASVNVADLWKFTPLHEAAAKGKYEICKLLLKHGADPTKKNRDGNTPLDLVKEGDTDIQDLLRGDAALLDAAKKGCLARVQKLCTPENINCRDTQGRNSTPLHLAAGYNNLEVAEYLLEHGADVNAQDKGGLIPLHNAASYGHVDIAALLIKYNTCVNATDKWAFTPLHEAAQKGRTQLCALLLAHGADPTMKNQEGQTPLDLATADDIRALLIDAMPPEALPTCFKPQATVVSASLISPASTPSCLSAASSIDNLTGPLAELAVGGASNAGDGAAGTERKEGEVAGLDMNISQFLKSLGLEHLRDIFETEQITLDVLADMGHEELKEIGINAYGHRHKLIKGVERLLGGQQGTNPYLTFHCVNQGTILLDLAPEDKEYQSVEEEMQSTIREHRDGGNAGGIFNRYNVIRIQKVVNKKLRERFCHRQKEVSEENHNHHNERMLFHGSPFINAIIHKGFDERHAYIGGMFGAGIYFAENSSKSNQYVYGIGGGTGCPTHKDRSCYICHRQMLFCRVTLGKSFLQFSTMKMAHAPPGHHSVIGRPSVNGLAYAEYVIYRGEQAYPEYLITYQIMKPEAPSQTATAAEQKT
Experimental: The potency of selected compounds according to the invention was assessed applying a modified in vitro inhibition assay. Here, the TNKS1 catalyzed NAD^+-dependent ribosylation of the enzyme itself (auto-parsylation) was detected using [^3H]-NAD^+ as substrate and applying the scintillation proximity assay (SPA) method to detect tritium-labeled, parsylated TNKS1. The intensity of the readout signal is proportional to the incorporated [^3H]-NAD^+. Inhibition of TNKS1 leads to a decreased incorporation of [^3H]-NAD^+ and consequently to a lower readout signal intensity. The concentration of a test compound which inhibits the enzyme activity by 50% (corresponds to half of the normed readout signal intensity) is reported as IC50.
Protocol Auto-Parsylation Assay
The assay was conducted in a 96 well MTP format with the identical TNKS1 enzyme sample and NAD^+ sample as in the histone ribosylation assay with the following modifications: TNKS1 enzyme sample was diluted with a modified assay buffer (50 mM MES pH 7.0, 1 mM DTT, 0.01% Triton X-100) to a final concentration of 6 nM TNKS1 and 10×NAD^+ solution was diluted with the modified assay buffer (s. above) to a final 0.445×NAD^+ solution doped with 100 Bq/μl [^3H]-NAD^+[Catalog #NET443H050UC, Perkin Elmer, Waltham, Mass., USA]. Substrate solution (10 μl) was incubated with different test compound concentrations (2.5 ul in 10% DMSO in modified assay buffer) or control (2.5 ul 10% DMSO in modified assay buffer only) and enzyme (10 μl) over night at room temperature. Incorporated tritium was measured after addition of 50 μl SPA beads (1 mg/ml) [Catalog #RPNQ0095 20 mg/ml, Perkin Elmer, Waltham, Mass., USA; diluted 1:10 with Dulbecco's phosphate buffered saline, PBS Catalog #D8537, Sigma-Aldrich, Steinheim, Germany] and detection of the photon emission with a beta count plate reader [Wallac MicroBeta®, Perkin Elmer, Waltham, Mass., USA].

| IC50 [nM] | Compound |
| --- | --- |
| 88 | Cc1cc(C)n2ncc(C(=O)NC34CCC(C(=O)Nc5cnccc5Cl)(CC3)CC4)c2n1 [Example 128, N-{4-[(4-chloropyridin-3-yl)carbamoyl]bicyclo[2.2.2]oct-1-yl}-5,7-dimethylpyrazolo[1,5-a]pyrimidine-3-carboxamide] |
| 140 | O=C(N[C@H]1CC[C@H](C(=O)Nc2c(F)cc(F)cc2Cl)CC1)c1cnc2cccnn12 [Example 133, N-{trans-4-[(2-chloro-4,6-difluorophenyl)carbamoyl]cyclohexyl}imidazo[1,2-b]pyridazine-3-carboxamide] |
| 150 | CNC(=O)c1nc[nH]c1C(=O)N[C@H]1CC[C@H](C(=O)Nc2cc(OC)c(OC)cc2Cl)CC1 [Example 5, N^5-{trans-4-[(2-chloro-4,5-dimethoxyphenyl)carbamoyl]cyclohexyl}-N^4-methyl-1H-imidazole-4,5-dicarboxamide] |
| 2.2 | O=C(NCCN1CCCCC1)c1nc[nH]c1C(=O)N[C@H]1CC[C@H](C(=O)Nc2cc(F)c(F)cc2Cl)CC1 [Example 4, N^5-{trans-4-[(2-chloro-4,5-difluorophenyl)carbamoyl]cyclohexyl}-N^4-[2-(piperidin-1-yl)ethyl]-1H-imidazole-4,5-dicarboxamide] |
| 11 | CCNC(=O)c1[nH]cnc1C(=O)N[C@H]1CC[C@@]2(CCN(c3ccc(F)cc3Cl)C2=O)CC1 [Example 141, N^4-[(trans)-2-(2-chloro-4-fluorophenyl)-1-oxo-2-azaspiro[4.5]dec-8-yl]-N^5-ethyl-1H-imidazole-4,5-dicarboxamide] |
| 210 | COCC(C)NC(=O)c1nc[nH]c1C(=O)N[C@H]1CC[C@H](C(=O)Nc2cc(C(F)(F)F)ccc2Cl)CC1 (stereo partly drawn) [Example 143, N^5-(trans-4-{[2-chloro-5-(trifluoromethyl)phenyl]carbamoyl}cyclohexyl)-N^4-(1-methoxypropan-2-yl)-1H-imidazole-4,5-dicarboxamide] |
| 520 | O=C(N[C@H]1CC[C@H](C(=O)Nc2ccncc2Cl)CC1)c1cnc2cccnn12 [Example 103, N-{trans-4-[(3-chloropyridin-4-yl)carbamoyl]cyclohexyl}imidazo[1,2-b]pyridazine-3-carboxamide] |
| 1300 | CC(C)(O)CNC(=O)c1nc[nH]c1C(=O)N[C@H]1CC[C@H](C(=O)Nc2cc(N3CCOCC3)ccc2Cl)CC1 [Example 94, N^5-(trans-4-{[2-chloro-5-(morpholin-4-yl)phenyl]carbamoyl}cyclohexyl)-N^4-(2-hydroxy-2-methylpropyl)-1H-imidazole-4,5-dicarboxamide] |
| 10 | CNC(=O)c1nc[nH]c1C(=O)N[C@H]1CC[C@H](C(=O)Nc2cc(F)c(F)cc2Cl)CC1 [Example 3, N^5-{trans-4-[(2-chloro-4,5-difluorophenyl)carbamoyl]cyclohexyl}-N^4-methyl-1H-imidazole-4,5-dicarboxamide] |
| 1000 | O=C(NC12CCC(C(=O)Nc3c(F)cc(F)cc3Cl)(CC1)CC2)c1cnc2cccnn12 [Example 123, N-{4-[(2-chloro-4,6-difluorophenyl)carbamoyl]bicyclo[2.2.2]oct-1-yl}imidazo[1,2-b]pyridazine-3-carboxamide] |
| 450 | CNC(=O)c1nc[nH]c1C(=O)N[C@H]1CC[C@H](C(=O)N(CCO)c2ccc(F)cc2Cl)CC1 [Example 157, N^5-{trans-4-[(2-chloro-4-fluorophenyl)(2-hydroxyethyl)carbamoyl]cyclohexyl}-N^4-methyl-1H-imidazole-4,5-dicarboxamide] |
| 89 | Cc1cc(NC(=O)C23CCC(NC(=O)c4cnn5cccnc45)(CC2)CC3)c(Cl)cc1F [Example 118, N-{4-[(2-chloro-4-fluoro-5-methylphenyl)carbamoyl]bicyclo[2.2.2]oct-1-yl}pyrazolo[1,5-a]pyrimidine-3-carboxamide] |
| 190 | O=C(N[C@H]1CC[C@H](C(=O)Nc2ccncc2Cl)CC1)c1cnn2cccnc12 [Example 105, N-{trans-4-[(3-chloropyridin-4-yl)carbamoyl]cyclohexyl}pyrazolo[1,5-a]pyrimidine-3-carboxamide] |
| 110 | Cc1nc2c(C(=O)N[C@H]3CC[C@H](C(=O)Nc4ccc(F)cc4Cl)CC3)cnn2c2c1CCC2 [Example 113, N-{trans-4-[(2-chloro-4-fluorophenyl)carbamoyl]cyclohexyl}-5-methyl-7,8-dihydro-6H-cyclopenta[e]pyrazolo[1,5-a]pyrimidine-3-carboxamide] |
| 7.4 | O=C(N[C@H]1CC[C@@]2(CCN(c3ccc(F)cc3Cl)C2=O)CC1)c1[nH]cnc1C(=O)N1CC(F)C1 [Example 166, N-[(trans)-2-(2-chloro-4-fluorophenyl)-1-oxo-2-azaspiro[4.5]dec-8-yl]-4-[(3-fluoroazetidin-1-yl)carbonyl]-1H-imidazole-5-carboxamide] |
| 40 | CNC(=O)c1nc[nH]c1C(=O)N[C@H]1CC[C@H](C(=O)Nc2cnccc2Cl)CC1 [Example 96, N^5-{trans-4-[(4-chloropyridin-3-yl)carbamoyl]cyclohexyl}-N^4-methyl-1H-imidazole-4,5-dicarboxamide] |
| 24 | CNC(=O)c1nc[nH]c1C(=O)N[C@H]1CC[C@H](C(=O)Nc2ccc(F)cc2Br)CC1 [Example 7, N^5-{trans-4-[(2-bromo-4-fluorophenyl)carbamoyl]cyclohexyl}-N^4-methyl-1H-imidazole-4,5-dicarboxamide] |
| 580 | CNC(=O)c1[nH]cnc1C(=O)NC12CCC(C(=O)Nc3c(F)cc(F)cc3Cl)(CC1)CC2 [Example 116, N^4-{4-[(2-chloro-4,6-difluorophenyl)carbamoyl]bicyclo[2.2.2]oct-1-yl}-N^5-methyl-1H-imidazole-4,5-dicarboxamide] |
| 150 | COCc1cc(C)n2ncc(C(=O)N[C@H]3CC[C@H](C(=O)Nc4c(F)cc(F)cc4Cl)CC3)c2n1 [Example 112, N-{trans-4-[(2-chloro-4,6-difluorophenyl)carbamoyl]cyclohexyl}-5-(methoxymethyl)-7-methylpyrazolo[1,5-a]pyrimidine-3-carboxamide] |
| 180 | Cc1cc(NC(=O)[C@H]2CC[C@H](NC(=O)c3[nH]cnc3C(=O)NCC(C)(C)O)CC2)c(Cl)cc1F [Example 100, N^5-{trans-4-[(2-chloro-4-fluoro-5-methylphenyl)carbamoyl]cyclohexyl}-N^4-(2-hydroxy-2-methylpropyl)-1H-imidazole-4,5-dicarboxamide] |

| Compound | IC50 [nM] |
| --- | --- |
| Cc1c(C(C)N(C)C)cnc2c(C(=O)N[C@H]3CC[C@H](C(=O)Nc4ccc(F)cc4Cl)CC3)cnn12 (single isomer, unassigned) [Example 57, N-{trans-4-[(2-chloro-4-fluorophenyl)carbamoyl]cyclohexyl}-6-[1-(dimethylamino)ethyl]-7-methylpyrazolo[1,5-a]pyrimidine-3-carboxamide] | 440 |
